In ChEMBL document CHEMBL5678816, “A Next-Generation TRK Kinase Inhibitor Overcomes Acquired Resistance to Prior TRK Kinase Inhibition in Patients with TRK Fusion-Positive Solid Tumors” (Cancer Discov, 2017):
Active and inactive are the calls of the source. The rule behind the calls is not given here.

Columns and labels:
[1] = Inhibition of N-terminal 6His-tagged TRKC G696A mutant (506 to 829 residues) (unknown origin) expressed in Escherichia coli incubated for 60 mins by [gamma-33P]-ATP based TopCount NXT liquid scintillation assay; parameters: species or system Homo sapiens
[2] = Inhibition of human extracellular domain deleted TRKA V573M mutant expressed in mouse NIH3T3 cells assessed as reduction in TRKA phosphorylation incubated for 1 hrs by ELISA; assay type: cell-based; conditions: NIH3T3, 1 h
[3] = Inhibition of human extracellular domain deleted TRKA G667S mutant expressed in mouse NIH3T3 cells assessed as reduction in TRKA phosphorylation incubated for 1 hrs by ELISA; assay type: cell-based; conditions: NIH3T3, 1 h
[4] = Inhibition of N-terminal 3FLAG-tagged wild type ETV6-TRKC (unknown origin) expressed in NIH3T3 cells assessed as ERK1/2 phosphorylation incubated for 1 hrs by flow cytometric analysis; assay type: cell-based, Homo sapiens
[5] = Inhibition of N-terminal 3FLAG-tagged ETV6-TRKC G623R mutant (unknown origin) expressed in NIH3T3 cells assessed as ERK1/2 phosphorylation incubated for 1 hrs by flow cytometric analysis; assay type: cell-based, Homo sapiens
[6] = Inhibition of N-terminal 3FLAG-tagged ETV6-TRKC G696A mutant (unknown origin) expressed in NIH3T3 cells assessed as ERK1/2 phosphorylation incubated for 1 hrs by flow cytometric analysis; assay type: cell-based, Homo sapiens
[7] = system: NIH3T3; experiment: In vivo inhibition of […] in nu/nu NCr mouse implanted with mouse NIH3T3 cells harboring extracellular domain deleted […] assessed as reduction in […] phosphorylation at 60 mg/kg, po administered once daily for 3 days and measured after 2 hrs post last dose by ELISA; assay type: functional, organism-based; conditions: time 3.0 day
[8] = system: NIH3T3; experiment: In vivo inhibition of […] in nu/nu NCr mouse implanted with mouse NIH3T3 cells harboring extracellular domain deleted […] assessed as reduction in […] phosphorylation at 10 to 100 mg/kg, po administered twice daily for 3 days and measured after 2 hrs post last dose by ELISA; assay type: functional, organism-based; conditions: dose 10-100 mg/kg, time 3.0 day
[9] = system: KM12; experiment: Antitumor activity against human KM12 cells harboring TPM3-TRKA fusion protein xenografted in nu/nu NCr mouse assessed as inhibition of tumor growth at 60 mg/kg, po administered once daily for 11 days; assay type: functional, organism-based; conditions: time 11.0 day
[10] = system: NIH3T3; experiment: Antitumor activity against mouse NIH3T3 cells harboring extracellular domain deleted TRKA implanted in nu/nu NCr mouse assessed as inhibition of tumor growth at 60 mg/kg, po administered once daily for 10 days; assay type: functional, organism-based; conditions: time 10.0 day
[11] = Toxicity in nu/nu NCr mouse xenografted with human KM12 cells harboring TPM3-TRKA fusion protein assessed as body weight loss at 60 mg/kg, po administered once daily for 11 days relative to control; assay type: organism-based; conditions: in vivo, 264 h, time 11 day
[12] = Toxicity in nu/nu NCr mouse implanted with mouse NIH3T3 cells harboring extracellular domain deleted TRKA assessed as body weight loss at 60 mg/kg, po administered once daily for 10 days relative to control; assay type: organism-based; conditions: in vivo, 240 h, time 10 day
[13] = Toxicity in nu/nu NCr mouse implanted with mouse NIH3T3 cells harboring extracellular domain deleted TRKA G595R mutant assessed as body weight loss at 60 mg/kg, po administered once daily for 12 days relative to control; assay type: organism-based; conditions: in vivo, 288 h, time 12 day

Q: With `O=C(Nc1cnn2ccc(N3CCC[C@@H]3c3cc(F)ccc3F)nc12)N1CC[C@H](O)C1` [LAROTRECTINIB] as the molecule, how does the IC50 [1] read?
A: The IC50 was 0.0045 µM.

Q: And the IC50 [2]?
A: The IC50 was 1.02 µM.

Q: And the IC50 [3]?
A: Its IC50 is 0.07 µM.

Q: What about the IC50 [4] of the same molecule?
A: The IC50 was 0.0188 µM.

Q: And the IC50 [5]?
A: The IC50 was over 10 µM.

Q: What about the IC50 [6] of the same molecule?
A: Its IC50 is 0.172 µM.

Q: What about the inhibition [7] of the same molecule?
A: The inhibition was “Active”.

Q: What about the inhibition [8] of the same molecule?
A: Its inhibition is “Active”.

Q: What about the Activity [9] of the same molecule?
A: The Activity was “Active”.

Q: And the Activity [10]?
A: Its Activity is “Active”.

Q: What about the Activity [11] of the same molecule?
A: Its Activity is under 5%.

Q: What about the Activity [12] of the same molecule?
A: The Activity was under 5%.

Q: What about the Activity [13] of the same molecule?
A: Its Activity is under 5%.
